Test results taken from ChEMBL document CHEMBL5226306, “Intestinal Excretion, Intestinal Recirculation, and Renal Tubule Reabsorption Are Underappreciated Mechanisms That Drive the Distribution and Pharmacokinetic Behavior of Small Molecule Drugs” (J Med Chem, 2021).
One block for each compound: values may come before it.

Experiments:
[1] = Drug recovery in IV dosed BDC rat feces; format: ADME, organism-based; settings: faeces, read-out: Drug recovery
[2] = Intestinal excretion in iv dosed rat; format: ADME, organism-based, Intestine; settings: in vivo, read-out: Drug excretion
[3] = Intestinal excretion in iv dosed dog; format: ADME, organism-based, Canis lupus familiaris, Intestine; settings: in vivo, read-out: Drug excretion
[4] = Total systemic clearance in rat; format: ADME; settings: in vivo
[5] = Unbound fraction in human plasma; format: ADME, cell-free
[6] = Drug excretion in rat bile; format: ADME, tissue-based; settings: read-out: Drug excretion
[7] = Renal excretion in rat; format: ADME, tissue-based, Kidney; settings: in vivo, read-out: Drug excretion (converted)
[8] = Clearance in rat urine; format: ADME, tissue-based
[9] = Drug elimination in human urine; format: ADME, tissue-based; settings: read-out: Drug excretion
[10] = Drug excretion in BDC dog urine; format: ADME, tissue-based, Canis lupus familiaris
[11] = Renal clearance in dog; format: ADME, tissue-based, Canis lupus familiaris, Kidney; settings: in vivo
[12] = Elimination half life in human
[13] = Intestinal clearance in rat; format: ADME; settings: in vivo
[14] = Total plasma clearance in dog assessed as hepatic blood flow; format: ADME, cell-free, Canis lupus familiaris
[15] = Intestinal clearance in human; format: ADME
[16] = in vivo; settings: rat, po
[17] = Volume of distribution in human
[18] = Intestinal clearance in dog; format: ADME, Canis lupus familiaris; settings: in vivo
[19] = Total plasma clearance in human assessed as hepatic blood flow; format: ADME, cell-free
[20] = Total plasma clearance in rat assessed as hepatic blood flow; format: ADME, cell-free
[21] = Tubular reabsorption in dog; format: ADME, Canis lupus familiaris
[22] = Oral bioavailability in human; format: ADME, organism-based; settings: in vivo
[23] = in vivo; settings: rat
[24] = Clearance in dog bile; format: ADME, tissue-based, Canis lupus familiaris; settings: in vivo
[25] = Total systemic clearance in dog; format: ADME, Canis lupus familiaris; settings: in vivo

- dose excreted [1]: 20%
- dose excreted [2]: 20%
- dose excreted [3]: 20%
- CL [4]: 20%
SMILES: COc1ccc(-n2nc(C(N)=O)c3c2C(=O)N(c2ccc(N4CCCC[14C]4=O)cc2)CC3)cc1

- Fu [5]: 0.01
SMILES: CC(C)(O)[C@H](F)CN1Cc2cc(NC(=O)c3cnn4cccnc34)c(N3CCOCC3)cc2C1=O

- dose excreted [6]: 10%
- fraction unbound [5]: 0.07
- CL renal [7]: 0.013 L/h/kg
- CL renal [8]: 0.71 L/h/kg
- dose excreted [9]: 27%
- dose excreted [10]: 21%
- CL renal [11]: 0.02 L/h/kg
- half-life [12]: 12 h
- CL [13]: > 20%
- QH [14]: < 5%
- CL [15]: > 27%
- Tmax [16]: 2 h
- Vd [17]: 0.3 L/kg
- CL [18]: > 42%
- QH [19]: < 5%
- QH [20]: < 5%
- Drug absorption [21]: 0.029 L/h/kg
- bioavailability [22]: 49%
SMILES: COc1ccc(-n2nc(C(N)=O)c3c2C(=O)N(c2ccc(N4CCCCC4=O)cc2)CC3)cc1 [APIXABAN]

- fraction unbound [5]: 0.085
- CL renal [23]: 0.0048 L/h/kg
SMILES: CCOc1ccc(Cc2cc([C@@H]3O[C@H](CO)[C@@H](O)[C@H](O)[C@H]3O)ccc2Cl)cc1 [DAPAGLIFLOZIN]

- Fu [5]: 0.2
SMILES: C[C@H]1O[C@@H](O[C@H]2[C@@H](O)C[C@H](O[C@H]3[C@@H](O)C[C@H](O[C@H]4CC[C@@]5(C)[C@H](CC[C@@H]6[C@@H]5C[C@@H](O)[C@]5(C)[C@@H](C7=CC(=O)OC7)CC[C@]65O)C4)O[C@@H]3C)O[C@@H]2C)C[C@H](O)[C@@H]1O [DIGOXIN]

- fraction unbound [5]: 0.4
SMILES: O=C1CN(/N=C/c2ccc([N+](=O)[O-])o2)C(=O)N1 [NITROFURANTOIN]

- fraction unbound [5]: 0.01
- CL [24]: 0.0024 L/h/kg
- CL [25]: 19%
SMILES: CS(=O)(=O)c1ccc(C(=O)Nc2ccc(Cl)c(-c3ccccn3)c2)c(Cl)c1 [VISMODEGIB]
